Substitutions are numbered along the chain they refer to.
Legend:
[1] = molecular target: T1, CRF1 receptor (Rattus norvegicus, UniProt P35353); assay: CRF1 binding assay, 125I-o-CRF competition, rat frontal cortex membrane; settings: n=10; for Hill Slope: 125I-o-CRF binding, rat frontal cortex membrane; for IC50: 5 point and 10 point competition assays, read-out: IC50, inhibition of 125I-o-CRF binding to rat frontal cortex membrane
T1 construct: rat frontal cortex membrane as the receptor source; from tissue; host or cells: rat frontal cortex
T1 sequence (P35353 24-415): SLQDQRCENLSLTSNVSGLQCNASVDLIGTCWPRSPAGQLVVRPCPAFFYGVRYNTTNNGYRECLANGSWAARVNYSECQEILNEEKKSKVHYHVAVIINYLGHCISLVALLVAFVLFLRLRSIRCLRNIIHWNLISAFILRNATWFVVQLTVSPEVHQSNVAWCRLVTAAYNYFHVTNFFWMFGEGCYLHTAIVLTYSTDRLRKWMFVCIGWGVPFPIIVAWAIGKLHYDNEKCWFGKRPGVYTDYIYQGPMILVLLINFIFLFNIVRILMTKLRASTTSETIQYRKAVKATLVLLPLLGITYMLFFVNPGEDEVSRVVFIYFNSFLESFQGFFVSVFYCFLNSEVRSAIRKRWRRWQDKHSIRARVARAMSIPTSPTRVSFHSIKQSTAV
Protocol: CRF1 Binding Assay. Frozen rat frontal cortex was thawed rapidly in assay buffer containing 50 mM Hepes (pH 7.0 at 23° C.), 10 mM MgCl2, 2 mM EGTA, 1 μg/ml aprotinin, 1 μg/ml leupeptin, 1 μg/ml pepstatin A, 0.005% Triton X-100, 10 U/ml bacitracin and 0.1% ovalbumin and homogenized. The suspension was centrifuged at 32000×g for 30 minutes. The resulting supernatant was discarded and the pellet resuspended by homogenization in assay buffer and centrifuged again. The supernatant was discarded and the pellet resuspended by homogenization in assay buffer and frozen at −70° C. On the day of the experiment aliquots of the homogenate were thawed quickly and 25 μg/well added to 150 pM ^125I-ovine-CRF (^125I-o-CRF) and drugs in a total volume of 100 μl assay buffer. The assay mixture was incubated for 2 hr at 21° C. Bound and free radioligand were then separated by rapid filtration using glass fiber filters (Whatman GF/B, pretreated with 0.3% PEI (polyethylenimine)) on a Brandel Cell Harvester. Filters were then washed multiple times with ice cold wash buffer (PBS w/o Ca^2+ and Mg^2+, 0.01% Triton X-100; pH 7.0 at 23° C.). Non-specific binding was defined using 1 μM DMP696, a CRF1 selective antagonist [Li, Y-W. et al., CNS Drug Reviews 11: 21-52, (2005)]. Filters were then counted in a Wallac Wizard gamma counter. IC50 values were determined in a five point (five drug concentrations) or ten point (ten drug concentrations) competition assay using non-linear regression by Microsoft Excel-fit.
Binding Results. The primary screen to determine binding potency (IC50 value) of (S)-4-(1-cyclopropyl-2-methoxyethyl)-6-(6-(difluoromethoxy)-2,5-dimethylpyridin-3-ylamino)-5-oxo-4,5-dihydropyrazine-2-carbonitrile at the CRF1 receptor was a competition binding experiment utilizing ^125I-o-CRF as the labeled peptide ligand and rat frontal cortex membrane as the receptor source. […] (S)-4-(1-Cyclopropyl-2-methoxyethyl)-6-(6-(difluoromethoxy)-2,5-dimethylpyridin-3-ylamino)-5-oxo-4,5-dihydropyrazine-2-carbonitrile also bound with high affinity to the native CRF1 receptors present on the human retinoblastoma cell line Y79.

[2] = molecular target: T2, human CRF1 receptors (Homo sapiens, UniProt P34998); assay: hCRF1 binding assay, 125I-o-CRF competition, Y79 cell membranes; settings: native human CRF1 receptors, Y79 retinoblastoma cells; n=3; read-out: IC50, inhibition of 125I-o-CRF binding to Y79 membrane
T2 construct: the native CRF1 receptors present on the human retinoblastoma cell line Y79; endogenous in cells; host or cells: Y79 human retinoblastoma cells
T2 sequence (P34998 24-415): T1 sequence (P35353 24-415) with R6H, N9S, T13A, V16I, V153M, A163G, V209I, H229Y, R356H
Protocol: hCRF1 Binding Assay. Membranes were prepared for binding using Y79 cells, a human retinoblastoma line that natively expresses human CRF1 receptors [Hauger, R., et al., Journal of Neurochemistry 68: 2308-2316, (1997)]. Briefly, cells were grown and collected then the pellet homogenized in assay buffer containing 50 mM Hepes (pH 7.0 at 23° C.), 10 mM MgCl2, 2 mM EGTA, 1 μg/ml aprotinin, 1 μg/ml leupeptin, 1 μg/ml pepstatin A, 0.005% Triton X-100, 10 U/ml bacitracin and 0.1% ovalbumin. The suspension was centrifuged at 32000×g for 30 minutes. The resulting supernatant was discarded and the pellet resuspended by homogenization in assay buffer and centrifuged again. The supernatant was discarded and the pellet resuspended by homogenization in assay buffer and aliquots frozen at −70° C. On the day of the experiment aliquots were thawed quickly and 25 μg/well added to 150 pM ^125I-ovine-CRF and drugs in a total volume of 100 μl assay buffer. The assay mixture was incubated for 2 hr at 21° C. Bound and free radioligand were then separated by rapid filtration using glass fiber filters (Whatman GF/B, pretreated with 0.3% PEI) on a Brandel Cell Harvester. […] Filters were then counted in a Wallac Wizard gamma counter. IC50 values were determined in a five point (five drug concentrations) competition assay using non-linear regression by Microsoft Excel-fit. […]

Row | Hill Slope [1] | IC50 [1] | IC50 [2] | SMILES
1 | 0.94±0.03 | 0.86 ± 0.04 nM | 1.81 ± 0.46 nM | COC[C@H](C1CC1)n1cc(C#N)nc(Nc2cc(C)c(OC(F)F)nc2C)c1=O [(S)-4-(1-cyclopropyl-2-methoxyethyl)-6-(6-(difluoromethoxy)-2,5-dimethylpyridin-3-ylamino)-5-oxo-4,5-dihydropyrazine-2-carbonitrile]
2 | 1.00±0.02 | 1.39 ± 0.09 nM | 1.71 ± 0.53 nM | COCC(COC)Nc1nc(C)nc2c(-c3ccc(Cl)cc3Cl)c(C)nn12 [DMP696]
